# According to patent publication US11192877B2, “3-(5-hydroxy-1-oxoisoindolin-2-yl)piperidine-2,6-dione derivatives and uses thereof” (Novartis AG, priority 2018, dated 2021):
# Read-outs that look alike come from different tables or passages of the source.
# Target: IKZF2 (Helios) (Homo sapiens, UniProt Q96SW2+Q9UKS7)
# Experiment: Prolabel quantification of IKZF2 protein levels in 293GT cells
# Assay type: cell-based
# Settings: 24 h, read-out: IKZF2 % protein reduction at 10 μM, 24 h
# [1] = Pro-label assay, 293GT cells, 10 μM
# Sequence of IKZF2 (Helios) (Q9UKS7 whole entry): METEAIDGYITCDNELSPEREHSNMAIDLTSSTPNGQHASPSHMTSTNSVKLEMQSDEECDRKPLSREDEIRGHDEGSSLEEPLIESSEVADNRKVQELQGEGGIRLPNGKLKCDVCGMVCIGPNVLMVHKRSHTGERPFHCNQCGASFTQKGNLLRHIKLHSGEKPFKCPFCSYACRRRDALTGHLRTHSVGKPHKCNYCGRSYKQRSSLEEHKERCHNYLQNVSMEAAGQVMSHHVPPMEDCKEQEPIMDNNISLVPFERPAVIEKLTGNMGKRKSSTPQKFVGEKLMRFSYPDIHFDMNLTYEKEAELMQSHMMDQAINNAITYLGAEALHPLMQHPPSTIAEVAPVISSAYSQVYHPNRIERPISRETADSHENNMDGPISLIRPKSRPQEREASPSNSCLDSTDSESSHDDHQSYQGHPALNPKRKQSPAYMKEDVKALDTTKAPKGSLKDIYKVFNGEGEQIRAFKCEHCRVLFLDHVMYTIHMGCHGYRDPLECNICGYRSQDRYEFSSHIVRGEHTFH
# Sequence of IKZF2 (Helios) (Q96SW2 whole entry): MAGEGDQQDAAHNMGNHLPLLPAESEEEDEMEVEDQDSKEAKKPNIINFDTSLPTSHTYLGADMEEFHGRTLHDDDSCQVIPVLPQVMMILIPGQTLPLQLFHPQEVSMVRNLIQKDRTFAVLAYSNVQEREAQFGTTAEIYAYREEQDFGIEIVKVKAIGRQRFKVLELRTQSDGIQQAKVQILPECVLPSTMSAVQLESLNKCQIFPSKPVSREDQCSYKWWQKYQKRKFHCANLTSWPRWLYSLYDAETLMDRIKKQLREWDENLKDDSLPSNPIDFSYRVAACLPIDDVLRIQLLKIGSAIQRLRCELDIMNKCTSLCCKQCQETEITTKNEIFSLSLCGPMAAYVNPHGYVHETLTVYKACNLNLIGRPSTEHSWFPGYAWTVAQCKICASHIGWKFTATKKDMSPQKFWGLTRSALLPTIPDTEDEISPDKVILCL
# Sequence of IKZF2 (Helios) (Q16531 whole entry partner): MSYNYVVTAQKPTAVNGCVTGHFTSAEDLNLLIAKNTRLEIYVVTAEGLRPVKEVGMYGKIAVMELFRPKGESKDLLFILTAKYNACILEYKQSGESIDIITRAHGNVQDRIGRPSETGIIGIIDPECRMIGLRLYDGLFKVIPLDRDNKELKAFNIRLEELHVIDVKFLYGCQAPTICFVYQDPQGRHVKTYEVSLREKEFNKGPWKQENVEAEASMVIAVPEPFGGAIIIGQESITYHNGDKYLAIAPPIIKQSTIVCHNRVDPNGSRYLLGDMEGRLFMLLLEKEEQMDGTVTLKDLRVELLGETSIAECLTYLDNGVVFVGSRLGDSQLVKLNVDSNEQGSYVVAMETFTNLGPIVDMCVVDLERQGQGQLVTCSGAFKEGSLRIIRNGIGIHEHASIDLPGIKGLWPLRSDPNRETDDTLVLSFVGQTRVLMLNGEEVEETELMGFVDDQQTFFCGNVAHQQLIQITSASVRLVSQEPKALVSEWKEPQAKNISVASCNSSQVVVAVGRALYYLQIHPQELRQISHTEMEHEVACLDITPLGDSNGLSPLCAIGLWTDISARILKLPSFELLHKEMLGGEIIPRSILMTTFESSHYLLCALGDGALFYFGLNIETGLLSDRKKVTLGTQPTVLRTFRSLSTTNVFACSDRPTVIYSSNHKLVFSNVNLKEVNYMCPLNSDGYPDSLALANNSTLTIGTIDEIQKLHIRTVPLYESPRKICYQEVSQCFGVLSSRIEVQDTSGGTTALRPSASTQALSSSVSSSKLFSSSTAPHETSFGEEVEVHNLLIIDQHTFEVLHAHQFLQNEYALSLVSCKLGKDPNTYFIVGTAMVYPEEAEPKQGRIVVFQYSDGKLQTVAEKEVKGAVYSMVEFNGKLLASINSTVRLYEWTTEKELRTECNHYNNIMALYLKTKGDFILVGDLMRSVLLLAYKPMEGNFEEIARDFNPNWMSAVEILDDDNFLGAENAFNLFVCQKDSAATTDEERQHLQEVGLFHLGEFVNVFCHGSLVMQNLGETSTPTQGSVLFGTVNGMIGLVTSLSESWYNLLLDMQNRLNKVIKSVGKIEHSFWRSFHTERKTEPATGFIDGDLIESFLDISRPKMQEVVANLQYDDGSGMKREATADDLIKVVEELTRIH
SMILES,IKZF2 % protein reduction at 10 µM [1] [%],IKZF2 % protein reduction at 10 µM [%]
"O=C1CCC(N2Cc3cc(O[C@H]4CCC[C@@H]4NCc4ccccn4)ccc3C2=O)C(=O)N1 (stereo partly drawn) [I-145, 3-(1-oxo-5-(((1S,2S)-2-((pyridin-2-ylmethyl)amino)cyclopentyl)oxy)isoindolin-2-yl)piperidine-2,6-dione]",52,
"O=C1CCC(N2Cc3cc(O[C@H]4CCC[C@@H]4N4CCCC4)ccc3C2=O)C(=O)N1 (stereo partly drawn) [I-146, 3-(1-oxo-5-(((1S,2S)-2-(pyrrolidin-1-yl)cyclopentyl)oxy)isoindolin-2-yl)piperidine-2,6-dione]",83,
"O=C1CCC(N2Cc3cc(O[C@H]4CCC[C@@H]4N4CC5(COC5)C4)ccc3C2=O)C(=O)N1 (stereo partly drawn) [I-147, 3-(5-(((1S,2S)-2-(2-oxa-6-azaspiro[3.3]heptan-6-yl)cyclopentyl)oxy)-1-oxoisoindolin-2-yl)piperidine-2,6-dione]",44,
"CC1(CN(CC2(C)COC2)[C@H]2CCC[C@@H]2Oc2ccc3c(c2)CN(C2CCC(=O)NC2=O)C3=O)COC1 (stereo partly drawn) [I-148, 3-(5-(((1S,2S)-2-(bis((3-methyloxetan-3-yl)methyl)amino)cyclopentyl)oxy)-1-oxoisoindolin-2-yl)piperidine-2,6-dione]",33,
"CC1CCN([C@H]2CCC[C@@H]2Oc2ccc3c(c2)CN(C2CCC(=O)NC2=O)C3=O)CC1 (stereo partly drawn) [I-149, 3-(5-(((1S,2S)-2-(4-methylpiperidin-1-yl)cyclopentyl)oxy)-1-oxoisoindolin-2-yl)piperidine-2,6-dione]",77,
"O=C1CCC(N2Cc3cc(O[C@H]4CCC[C@@H]4NCc4cccnc4)ccc3C2=O)C(=O)N1 (stereo partly drawn) [I-150, 3-(1-oxo-5-(((1S,2S)-2-((pyridin-3-ylmethyl)amino)cyclopentyl)oxy)isoindolin-2-yl)piperidine-2,6-dione]",,51
"O=C1CCC(N2Cc3cc(O[C@H]4CCC[C@@H]4NCc4ccncc4)ccc3C2=O)C(=O)N1 (stereo partly drawn) [I-151, 3-(1-oxo-5-(((1S,2S)-2-((pyridin-4-ylmethyl)amino)cyclopentyl)oxy)isoindolin-2-yl)piperidine-2,6-dione]",53,
"COC1(C)CCN([C@H]2CCC[C@@H]2Oc2ccc3c(c2)CN(C2CCC(=O)NC2=O)C3=O)CC1 (stereo partly drawn) [I-152, 3-(5-(((1S,2S)-2-(4-methoxy-4-methylpiperidin-1-yl)cyclopentyl)oxy)-1-oxoisoindolin-2-yl)piperidine-2,6-dione]",82,
"CC1(C)CCN([C@H]2CCC[C@@H]2Oc2ccc3c(c2)CN(C2CCC(=O)NC2=O)C3=O)CC1 (stereo partly drawn) [I-153, 3-(5-(((1S,2S)-2-(4,4-dimethylpiperidin-1-yl)cyclopentyl)oxy)-1-oxoisoindolin-2-yl)piperidine-2,6-dione]",,85
"COC1CCN([C@H]2CCC[C@@H]2Oc2ccc3c(c2)CN(C2CCC(=O)NC2=O)C3=O)CC1 (stereo partly drawn) [I-154, 3-(5-(((1S,2S)-2-(4-methoxypiperidin-1-yl)cyclopentyl)oxy)-1-oxoisoindolin-2-yl)piperidine-2,6-dione]",83,
"CCN(CC1COC1)[C@H]1CCC[C@@H]1Oc1ccc2c(c1)CN(C1CCC(=O)NC1=O)C2=O (stereo partly drawn) [I-155, 3-(5-(((1S,2S)-2-(ethyl(oxetan-3-ylmethyl)amino)cyclopentyl)oxy)-1-oxoisoindolin-2-yl)piperidine-2,6-dione]",65,
"O=C1CCC(N2Cc3cc(O[C@H]4CCC[C@@H]4N4Cc5ccccc5C4)ccc3C2=O)C(=O)N1 (stereo partly drawn) [I-156, 3-(5-(((1S,2S)-2-(isoindolin-2-yl)cyclopentyl)oxy)-1-oxoisoindolin-2-yl)piperidine-2,6-dione]",70,
"COC1CN([C@H]2CCC[C@@H]2Oc2ccc3c(c2)CN(C2CCC(=O)NC2=O)C3=O)C1 (stereo partly drawn) [I-157, 3-(5-(((1S,2S)-2-(3-methoxyazetidin-1-yl)cyclopentyl)oxy)-1-oxoisoindolin-2-yl)piperidine-2,6-dione]",61,
"CCOC1(C)CCN([C@H]2CCC[C@@H]2Oc2ccc3c(c2)CN(C2CCC(=O)NC2=O)C3=O)CC1 (stereo partly drawn) [I-158, 3-(5-(((1S,2S)-2-(4-ethoxy-4-methylpiperidin-1-yl)cyclopentyl)oxy)-1-oxoisoindolin-2-yl)piperidine-2,6-dione]",82,
"CO[C@H]1CC[C@H](CN[C@H]2CCC[C@@H]2Oc2ccc3c(c2)CN(C2CCC(=O)NC2=O)C3=O)CC1 (stereo partly drawn) [I-159, 3-(5-(((1S,2S)-2-((((1r,4S)-4-methoxycyclohexyl)methyl)amino)cyclopentyl)oxy)-1-oxoisoindolin-2-yl)piperidine-2,6-dione]",75,
"N#C[C@H]1CC[C@H](CN[C@H]2CCC[C@@H]2Oc2ccc3c(c2)CN(C2CCC(=O)NC2=O)C3=O)CC1 (stereo partly drawn) [I-160, (1S,4r)-4-((((1S,2S)-2-((2-(2,6-dioxopiperidin-3-yl)-1-oxoisoindolin-5-yl)oxy)cyclopentyl)amino)methyl)cyclohexane-1-carbonitrile]",,75

SMILES,IKZF2 % protein reduction at 10 µM [1] [%],IKZF2 % protein reduction at 10 µM [%]
"COC1CCC(CN[C@H]2CCC[C@@H]2Oc2ccc3c(c2)CN(C2CCC(=O)NC2=O)C3=O)CC1 (stereo partly drawn) [I-161, 3-(5-(((1S,2S)-2-(((4-methoxycyclohexyl)methyl)amino)cyclopentyl)oxy)-1-oxoisoindolin-2-yl)piperidine-2,6-dione]",80,
"CCN(CC1CC(C)(C#N)C1)[C@H]1CCC[C@@H]1Oc1ccc2c(c1)CN(C1CCC(=O)NC1=O)C2=O (stereo partly drawn) [I-163, 3-((((1S,2S)-2-((2-(2,6-dioxopiperidin-3-yl)-1-oxoisoindolin-5-yl)oxy)cyclopentyl)(ethyl)amino)methyl)-1-methylcyclobutane-1-carbonitrile]",78,
"O=C1CCC(N2Cc3cc(O[C@H]4CCC[C@@H]4N4CCC(F)CC4)ccc3C2=O)C(=O)N1 (stereo partly drawn) [I-166, 3-(5-(((1S,2S)-2-(4-fluoropiperidin-1-yl)cyclopentyl)oxy)-1-oxoisoindolin-2-yl)piperidine-2,6-dione]",,81
"O=C1CCC(N2Cc3cc(O[C@H]4CCC[C@@H]4N4CCCOCCC4)ccc3C2=O)C(=O)N1 (stereo partly drawn) [I-167, 3-(5-(((1S,2S)-2-(1,5-oxazocan-5-yl)cyclopentyl)oxy)-1-oxoisoindolin-2-yl)piperidine-2,6-dione]",75,
"CCN(C[C@H]1CC[C@H](OC)CC1)[C@H]1CCC[C@@H]1Oc1ccc2c(c1)CN(C1CCC(=O)NC1=O)C2=O (stereo partly drawn) [I-170, 3-(5-(((1S,2S)-2-(ethyl(((1r,4S)-4-methoxycyclohexyl)methyl)amino)cyclopentyl)oxy)-1-oxoisoindolin-2-yl)piperidine-2,6-dione]",,67
"CO[C@H]1CC[C@H](CN(C)[C@H]2CCC[C@@H]2Oc2ccc3c(c2)CN(C2CCC(=O)NC2=O)C3=O)CC1 (stereo partly drawn) [I-171, 3-(5-(((1S,2S)-2-((((1R,4S)-4-methoxycyclohexyl)methyl)(methyl)amino)cyclopentyl)oxy)-1-oxoisoindolin-2-yl)piperidine-2,6-dione]",74,
"O=C1CCC(N2Cc3cc(O[C@H]4CCC[C@@H]4NCC4CCC(F)(F)CC4)ccc3C2=O)C(=O)N1 (stereo partly drawn) [I-173, 3-(5-(((1S,2S)-2-(((4,4-difluorocyclohexyl)methyl)amino)cyclopentyl)oxy)-1-oxoisoindolin-2-yl)piperidine-2,6-dione]",84,
"O=C1CCC(N2Cc3cc(O[C@H]4CCC[C@@H]4NCc4ccc5[nH]ccc5c4)ccc3C2=O)C(=O)N1 (stereo partly drawn) [I-174, 3-(5-(((1S,2S)-2-(((1H-indol-5-yl)methyl)amino)cyclopentyl)oxy)-1-oxoisoindolin-2-yl)piperidine-2,6-dione]",86,
"O=C1CCC(N2Cc3cc(O[C@H]4CCC[C@@H]4N4CC(Oc5ccccc5Cl)C4)ccc3C2=O)C(=O)N1 (stereo partly drawn) [I-177, 3-(5-(((1S,2S)-2-(3-(2-chlorophenoxy)azetidin-1-yl)cyclopentyl)oxy)-1-oxoisoindolin-2-yl)piperidine-2,6-dione]",92,
"COc1ccccc1OC1CN([C@H]2CCC[C@@H]2Oc2ccc3c(c2)CN(C2CCC(=O)NC2=O)C3=O)C1 (stereo partly drawn) [I-178, 3-(5-(((1S,2S)-2-(3-(2-methoxyphenoxy)azetidin-1-yl)cyclopentyl)oxy)-1-oxoisoindolin-2-yl)piperidine-2,6-dione]",92,
"CCN(C[C@H]1C[C@@H](OC)C1)[C@H]1CCC[C@@H]1Oc1ccc2c(c1)CN(C1CCC(=O)NC1=O)C2=O (stereo partly drawn) [I-180, 3-(5-(((1S,2S)-2-(ethyl(((1s,3R)-3-methoxycyclobutyl)methyl)amino)cyclopentyl)oxy)-1-oxoisoindolin-2-yl)piperidine-2,6-dione]",81,
"O=C1CCC(N2Cc3cc(O[C@H]4CCC[C@@H]4N4CCC(OCC5CC5)CC4)ccc3C2=O)C(=O)N1 (stereo partly drawn) [I-186, 3-(5-(((1S,2S)-2-(4-(cyclopropylmethoxy)piperidin-1-yl)cyclopentyl)oxy)-1-oxoisoindolin-2-yl)piperidine-2,6-dione]",,86
"CC(C)OC1CCN([C@H]2CCC[C@@H]2Oc2ccc3c(c2)CN(C2CCC(=O)NC2=O)C3=O)CC1 (stereo partly drawn) [I-187, 3-(5-(((1S,2S)-2-(4-isopropoxypiperidin-1-yl)cyclopentyl)oxy)-1-oxoisoindolin-2-yl)piperidine-2,6-dione]",,79
"O=C1CCC(N2Cc3cc(O[C@H]4CCC[C@@H]4N4C[C@@H]5[C@H](C4)[C@H]4CC[C@@H]5O4)ccc3C2=O)C(=O)N1 (stereo partly drawn) [I-188, 3-(5-(((1S,2S)-2-((3aR,4R,7S,7aS)-octahydro-2H-4,7-epoxyisoindol-2-yl)cyclopentyl)oxy)-1-oxoisoindolin-2-yl)piperidine-2,6-dione]",,70
"CCOC1CCN([C@H]2CCC[C@@H]2Oc2ccc3c(c2)CN(C2CCC(=O)NC2=O)C3=O)CC1 (stereo partly drawn) [I-189, 3-(5-(((1S,2S)-2-(4-ethoxypiperidin-1-yl)cyclopentyl)oxy)-1-oxoisoindolin-2-yl)piperidine-2,6-dione]",,70
"O=C1CCC(N2Cc3cc(O[C@H]4CCC[C@@H]4N4CCc5ncccc5C4)ccc3C2=O)C(=O)N1 (stereo partly drawn) [I-190, 3-(5-(((1S,2S)-2-(7,8-dihydro-1,6-naphthyridin-6(5H)-yl)cyclopentyl)oxy)-1-oxoisoindolin-2-yl)piperidine-2,6-dione]",39,
